pIC50: −log10 of the molar value.
Each compound was assayed against Acetylcholinesterase (Electrophorus electricus, UniProt O42275) (assay: AChE Inhibition Assay). Conditions: pH 8; 25 °C.
Acetylcholinesterase, sequence (O42275 whole entry): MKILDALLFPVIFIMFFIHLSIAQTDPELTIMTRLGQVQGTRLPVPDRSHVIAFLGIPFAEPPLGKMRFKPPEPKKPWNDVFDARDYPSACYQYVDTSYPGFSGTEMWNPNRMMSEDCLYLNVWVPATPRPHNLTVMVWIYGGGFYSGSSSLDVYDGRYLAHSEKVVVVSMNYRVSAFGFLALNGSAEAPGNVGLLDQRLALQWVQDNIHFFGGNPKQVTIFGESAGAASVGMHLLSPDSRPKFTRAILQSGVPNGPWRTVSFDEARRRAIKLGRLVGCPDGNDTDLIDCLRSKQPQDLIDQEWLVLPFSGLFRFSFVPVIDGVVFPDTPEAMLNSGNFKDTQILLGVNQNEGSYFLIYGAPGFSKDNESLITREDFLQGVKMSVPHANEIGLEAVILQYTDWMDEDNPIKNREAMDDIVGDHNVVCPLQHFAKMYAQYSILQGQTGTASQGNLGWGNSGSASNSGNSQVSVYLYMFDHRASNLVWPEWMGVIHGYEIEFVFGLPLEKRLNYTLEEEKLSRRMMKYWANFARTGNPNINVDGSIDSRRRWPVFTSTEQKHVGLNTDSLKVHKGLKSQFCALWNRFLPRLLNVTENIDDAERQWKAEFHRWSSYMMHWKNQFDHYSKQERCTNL
Description: Inhibitory activities of synthesized α-oxycarbanilinophosphonates were determined at 25°C by the colorimetric method of Ellman et al. [Ellman et al., Biochem. Pharmacol., 7:88-95]. The assay solution contained 0.1 M phosphate buffer, pH 8, 0.3 mM 5,5'-dithiobis(2-nitrobenzoic acid) (DTNB), 0.125 units of AChE (Sigma Chemical Co. from electric eel (Electrophorous electricus)), and 0.2 mM acetylthiocholine iodide as the substrate in a total volume of 2.5 mL. In order to provide sufficient time for interaction with either PAS and/or active site of the enzyme, particularly in competition with the substrate, the synthesized compounds were added to the assay solution and preincubated with the enzyme for 10 min at 25°C. In order to solubilize the synthesized compounds, the reaction mixture contained 2% ethanol (50 μL in 2.5 mL reaction mixture volume). Control experiments were run and it was seen that no inhibitory effect was exerted on the enzyme by ethanol. The changes in abs
Compound CCOP(=O)(OCC)C(OC(=O)Nc1ccc(C)c(Cl)c1)c1ccc(Cl)cc1Cl (stereo not given) [Diethyl[(3-chloro-4-methylanilinocarbonyl)oxy](2,4-dichlorophenyl)methyl phosphonate (4h)] has a pIC50 of 5.20. CCOP(=O)(OCC)C(OC(=O)Nc1ccccc1)c1ccc(SC)cc1 (stereo not drawn) [α-Oxycarbanilinophosphonate, 4d] was tested, and the pIC50 was 3.79. In the case of CCOP(=O)(OCC)C(/C=C/c1ccccc1[N+](=O)[O-])OC(=O)Nc1ccccc1 (stereo not drawn) [α-Oxycarbanilinophosphonate, 4f], the pIC50 was 4.99. With CCOP(=O)(OCC)C(OC(=O)Nc1ccc(C)c(Cl)c1)c1ccc([N+](=O)[O-])cc1 (stereo not drawn) [α-Oxycarbanilinophosphonate, 4i] the pIC50 was 5.13. In the case of CCOP(=O)(OCC)C(OC(=O)NCc1ccccc1)c1cccc2ccccc12 (stereo not drawn) [α-Oxycarbanilinophosphonate, 4l], the pIC50 was 3.38.
